# Tested on: subjects with Age-Associated Memory Impairment
# Experiment: AAMI 6-week study: CDR computerized cognitive test battery
# Format: in vivo, human
# Settings: for Quality of Episodic Secondary Memory, LS mean difference versus placebo: overall; for Self-Rated Contentment, treatment effects: p<0.001
# Protocol: A single-center, 6-week, double-blind, randomizes, parallel-group, placebo-controlled, dose-ranging pilot study was performed to evaluate the efficacy, tolerability, and safety of >96% ethyl-EPA in subjects with subjective and objective memory impairment according to generally accepted criteria for Age-Associated Memory Impairment (“AAMI”). The primary objective of the study was to determine the effect of >96% ethyl-EPA 1 g, 2 g, and 4 g daily, compared to placebo, on cognitive performance in subjects with AAMI.
# Ninety-four subjects were randomized into one of six groups: 1 g E-EPA daily (n=23), 2 g E-EPA daily (n=24), 4 g E-EPA daily (n=24), 1 g placebo daily (n=7), 2 g placebo daily (n=8), and 4 g placebo daily (n=8). E-EPA was provided as 500 mg soft gel capsules containing>96% E-EPA and 0.2% dl-α-tocopherol as an antioxidant. Placebo capsules contained 467 mg of liquid paraffin and 0.2% dl-α-tocopherol. Ninety-one subjects completed the study. Two subjects in the 2 g E-EPA group and one subject in the 2 g placebo group discontinued the study.
# The study consisted of a screening visit, a training visit, and four study visits. At the screening visit, subjects' eligibility was determined through cognitive tests (verbal paired associated learning [PAL] subscale, vocabulary subtest, Memory Assessment Clinics Questionnaire [MAC-Q], mini mental state evaluation [MMSE] and MINI [mini international neuropsychiatric interview; sections 1 and 2 of Diagnostic and Statistical Manual of Mental Disorders, 4th Edition (DSM-IV) plus dysthymia]), haematology, clinical chemistry and 12-lead electrocardiogram (ECG). At the training visit, subjects were shown how to use the CDR computerized system. Subjects took study drug for 6 weeks and on Days 0, 14, 28 and 42, subjects underwent the CDR cognitive test battery.
# A selection of tasks from the CDR computerized cognitive assessment system were administered at Visit 2 (training visit), Visit 3 (baseline), Visit 4 (Day 14), Visit 5 (Day 28) and Visit 6 (Day 42). Parallel forms of the tests were presented at each testing session. All tasks were computer-controlled, the information presented on high resolution monitors, and the responses recorded via a response model containing two buttons: one marked ‘no’ and the other ‘yes’. Five CDR composite scores were used as the primary/secondary outcome variables. The task titles were: • Word Presentation • Immediate Word Recall • Picture Presentation • Simple Reaction Time • Digit Vigilance • Choice Reaction Time • Spatial Working Memory • Numeric Working Memory • Delayed Word Recall • Word Recognition • Picture Recognition • Bond-Lader Visual Analogue Scales of Mood and Alertness • Screen, Using the Computer Mouse
# Difference from baseline data for each major variable was evaluated by an Analysis of Covariance (“ANCOVA”) using SAS® PROC MIXED Version 8.2. Fixed effects for treatment, day, time point, treatment by day, treatment by time point, treatment by day by time-point were fitted. Subject within treatment was fitted as a repeated effect using the repeated statement. The compound symmetry covariance structure was used. Subjects' time-matched predose assessments on Day 0 were used as a covariate in the analysis.
# Least squares means (LS means) were calculated for treatment by day, treatment by time-point and treatment by day by time-point interaction. This formal analysis was conducted for the ITT and Study PP Populations separately.
# A post-hoc analysis compared the individual placebo groups (1 g, 2 g and 4 g paraffin oil) with the corresponding ethyl-EPA doses.
# [1] = post-hoc analysis, 1 g, Days 14 and 28
smiles,measurement,setting,value
"CC/C=C\C/C=C\C/C=C\C/C=C\C/C=C\CCCC(=O)OCC [IPE, all-cis eicosa-5,8,11,14,17-pentaenoic acid ethyl ester]","Continuity of Attention, effect of treatment",ITT,no statistically significant effect of treatment
same,"Quality of Episodic Secondary Memory, effect of treatment",ITT,no statistically significant effect of treatment
same,"Self-Rated Alertness, effect of treatment",ITT,no statistically significant effect of treatment
same,"Self-Rated Calmness, effect of treatment",ITT,no statistically significant effect of treatment
same,"Self-Rated Contentment, LS mean difference to placebo",ITT,no statistically significant effects
same,"Speed of Memory and contributing subtasks, effect of treatment",ITT,no statistically significant effects of treatment
same,"Power of Attention, effect of treatment","ITT, 1, 2, 4 g daily vs placebo",no statistically significant effect of treatment
same,"Immediate Word Recall Accuracy, LS mean difference versus placebo","ITT, 1 g, AM 1, p=0.040",statistically significant decreases
same,"Immediate Word Recall Accuracy, LS mean difference versus placebo","ITT, 1 g, Day 14, p=0.028",statistically significant decreases
same,Picture Recognition Speed versus placebo,"ITT, 1 g, Day 14 at AM 2, p=0.084",trends for benefits
same,"Immediate Word Recall Accuracy, LS mean difference versus placebo","ITT, 1 g, Day 14 at PM 2, p=0.020",statistically significant decreases
same,"Word Recognition Sensitivity Index, LS mean difference versus placebo","ITT, 1 g, Day 28, p=0.024",statistically significant decreases
same,Picture Recognition Speed versus placebo,"ITT, 1 g, Day 28 at AM 1, p=0.085",trends for benefits
same,"Picture Recognition Sensitivity Index, LS mean difference versus placebo","ITT, 1 g, Day 28 at AM 2, p=0.017",statistically significant decrease
same,"Picture Recognition Sensitivity Index, LS mean difference versus placebo","ITT, 1 g, Day 28 at PM 2, p=0.040",statistically significant decrease
same,"Quality of Episodic Secondary Memory, LS mean difference versus placebo","ITT, 1 g, p=0.040",statistically significant decreases
same,"Immediate Word Recall Accuracy, LS mean difference versus placebo","ITT, 2 g, AM 1, p=0.028",statistically significant decreases
same,"Immediate Word Recall Accuracy, LS mean difference versus placebo","ITT, 2 g, Day 28, p=0.017",statistically significant decreases
same,"Self-Rated Alertness, LS mean difference versus placebo","ITT, 2 g, Day 28, p=0.047",statistically significant decrease in ratings
same,"Immediate Word Recall Accuracy, LS mean difference versus placebo","ITT, 2 g, Day 28 at AM 1, p=0.006",statistically significant decreases
same,"Self-Rated Alertness, LS mean difference versus placebo","ITT, 2 g, Day 28 at AM 2, p=0.041",statistically significant decrease in ratings
same,"Quality of Episodic Secondary Memory, LS mean difference versus placebo","ITT, 2 g, p=0.035",statistically significant decreases
same,"Spatial Working Memory Speed, LS mean difference versus placebo","ITT, 4 g, Day 14 at PM 1, p=0.048",statistically significant benefit
same,"Word Recognition Sensitivity Index, LS mean difference versus placebo","ITT, 4 g, Day 28 at PM 2, p=0.030",statistically significant decrease
same,"Word Recognition Sensitivity Index, LS mean difference versus placebo","ITT, 4 g, Day 42, p=0.038",statistically significant decreases
same,"Spatial Working Memory Speed, LS mean difference versus placebo","ITT, 4 g, Day 42 at AM 1, p=0.061",trend for a benefit
same,"Word Recognition Sensitivity Index, LS mean difference versus placebo","ITT, 4 g, PM 2, p=0.045",statistically significant decrease
same,"Self-Rated Contentment, treatment effects",ITT,statistically significant treatment by day interaction
same,"Choice Reaction Time, treatment effects","ITT, p=0.011",statistically significant treatment by day interaction
same,"Spatial Working Memory Sensitivity Index, treatment effects","ITT, p=0.015",statistically significant treatment by day interaction
same,"Quality of Working Memory, treatment effects","ITT, p=0.019",statistically significant treatment by day interaction
same,"Numeric Working Memory Sensitivity Index, treatment effects","ITT, p=0.089",statistical trend for a treatment by day interaction
same,"Continuity of Attention, effect of treatment",Study Per Protocol,no statistically significant effect of treatment
same,"Digit Vigilance Targets Detected, treatment effects","Study Per Protocol, p=0.040",statistically significant treatment by time-point interaction
same,"Power of Attention, effect of treatment",Study Per-Protocol,no statistically significant effect of treatment
same,"Quality of Episodic Secondary Memory, effect of treatment",Study Per-Protocol,no statistically significant effects of treatment
same,"Self-Rated Alertness, effect of treatment",Study Per-Protocol,no statistically significant effect of treatment
same,"Self-Rated Calmness, effect of treatment",Study Per-Protocol,no statistically significant effect of treatment
same,"Self-Rated Contentment, LS mean difference to placebo",Study Per-Protocol,no statistically significant effects
same,"Speed of Memory and contributing subtasks, effect of treatment",Study Per-Protocol,no statistical significant effects of treatment
same,"Immediate Word Recall Accuracy, LS mean difference to placebo","Study Per-Protocol, 1 g, AM 1, p=0.038",statistically significant decreases
same,"Immediate Word Recall Accuracy, LS mean difference to placebo","Study Per-Protocol, 1 g, AM 2, p=0.048",statistically significant decreases
same,"Immediate Word Recall Accuracy, LS mean difference to placebo","Study Per-Protocol, 1 g, Day 14, p=0.024",statistically significant decreases
same,"Immediate Word Recall Accuracy, LS mean difference to placebo","Study Per-Protocol, 1 g, Day 14 at PM 2, p=0.019",statistically significant decreases
same,"Word Recognition Sensitivity Index, LS mean difference to placebo","Study Per-Protocol, 1 g, Day 28, p=0.027",statistically significant decreases
same,"Picture Recognition Sensitivity Index, LS mean difference versus placebo","Study Per-Protocol, 1 g, Day 28 at AM 2, p=0.020",statistically significant decreases
same,"Picture Recognition Sensitivity Index, LS mean difference versus placebo","Study Per-Protocol, 1 g, Day 28 at PM 2, p=0.026",statistically significant decreases
same,"Quality of Episodic Secondary Memory, LS mean difference versus placebo","Study Per-Protocol, 1 g, p=0.043",statistically significant decreases
same,"Immediate Word Recall Accuracy, LS mean difference to placebo","Study Per-Protocol, 2 g, AM 1, p=0.029",statistically significant decreases
same,"Immediate Word Recall Accuracy, LS mean difference to placebo","Study Per-Protocol, 2 g, Day 28, p=0.017",statistically significant decreases
same,"Self-Rated Alertness, LS mean difference versus placebo","Study Per-Protocol, 2 g, Day 28, p=0.035",statistically significant decrease in ratings
same,"Immediate Word Recall Accuracy, LS mean difference to placebo","Study Per-Protocol, 2 g, Day 28 at AM 1, p=0.006",statistically significant decreases
same,"Self-Rated Alertness, LS mean difference versus placebo","Study Per-Protocol, 2 g, Day 28 at AM 2, p=0.033",statistically significant decrease in ratings
same,"Quality of Episodic Secondary Memory, LS mean difference versus placebo","Study Per-Protocol, 2 g, p=0.036",statistically significant decreases
same,"Word Recognition Sensitivity Index, LS mean difference to placebo","Study Per-Protocol, 4 g, Day 42, p=0.038",statistically significant decreases
same,"Self-Rated Calmness, LS mean difference versus placebo","Study Per-Protocol, 4 g, Day 42 at PM 1, p=0.071",statistical trend for an increase in ratings
same,"Self-Rated Contentment, treatment effects",Study Per-Protocol,statistically significant treatment by day interaction
same,"Choice Reaction Time, treatment effects","Study Per-Protocol, p=0.013",statistically significant treatment by day interaction
same,"Spatial Working Memory Sensitivity Index, treatment effects","Study Per-Protocol, p=0.014",statistically significant treatment by day interaction
same,"Quality of Working Memory, treatment effects","Study Per-Protocol, p=0.021",statistically significant treatment by day interaction
same,Self-Rated Calmness versus corresponding placebo,post-hoc analysis,no differences between active treatment and placebo
same,Self-rated Alertness versus corresponding placebo,[1],decreases in ratings
same,Self-rated Contentment versus corresponding placebo,[1],decreases in ratings
same,Power of Attention versus corresponding placebo,"post-hoc analysis, 4 g, Day 42",overall benefit versus the corresponding placebo
same,Spatial Working Memory Sensitivity Index versus corresponding placebo,"post-hoc analysis, 4 g, Day 42, Study PP Population",overall benefit
same,Simple Reaction Time versus corresponding placebo,"post-hoc analysis, 4 g, PM 2 collapsed across days and several time-points on Days 14 and 42",improvements in performance
same,Choice Reaction Time versus corresponding placebo,"post-hoc analysis, 4 g, all study days",overall benefit versus corresponding placebo
same,subtask measures of Speed of Memory versus corresponding placebo,"post-hoc analysis, mostly for 1 g",some signs of improvement in performance
